The record followed here is ChEMBL document CHEMBL3352288, “Synthesis and biological evaluation of 9α- and 9β-hydroxyamino-parthenolides as novel anticancer agents” (Bioorg Med Chem Lett, 2014).

The first assay deals with Hs 683. Nature of the assay: Anticancer activity against human Hs 683 cells assessed as growth inhibition after 72 hrs by MTT colorimetric assay. The format is functional, cell-based. The conditions noted are these: Hs 683, 72 h. (Tetrazolium assays rely on reduction of a dye to a coloured formazan, in cell work by metabolically active cells.)
Broadly, the IC50 is the concentration that inhibits the measured activity by half. Regarding `C=C1C(=O)O[C@H]2[C@H]1C[C@@H](O)/C(C)=C/CC[C@@]1(C)O[C@@H]21`, the IC50 was found to be 7 µM.

On to `C/C1=C\CC[C@@]2(C)O[C@@H]2[C@H]2OC(=O)[C@@H](CN3CCCCC3)[C@@H]2C[C@H]1O`, for which the IC50 was 7 µM.

As for `C=C1C(=O)O[C@H]2[C@H]1C[C@H](O)/C(C)=C/CC[C@@]1(C)O[C@@H]21`, the IC50 came to 25 µM.

As to `C/C1=C\CC[C@@]2(C)O[C@@H]2[C@H]2OC(=O)[C@@H](CN(C)CCN(C)C)[C@@H]2C[C@H]1O`, the IC50 was 9 µM.

Take `C[C@]12O[C@@H]1CC[C@@]1(C)O[C@@H]1[C@H]1OC(=O)[C@@H](CN3CCN(c4ccccc4)CC3)[C@@H]1C[C@H]2O`: the IC50 amounted to 31 µM.

On to `C/C1=C\CC[C@@]2(C)O[C@@H]2[C@H]2OC(=O)[C@@H](CN3CCN(C)CC3)[C@@H]2C[C@@H]1O`, for which the IC50 stood at 22 µM.

As to `C/C1=C\CC[C@@]2(C)O[C@@H]2[C@H]2OC(=O)[C@@H](CN3CCCC3)[C@@H]2C[C@@H]1O`, the IC50 is 10 µM.

As for `C/C1=C\CC[C@@]2(C)O[C@@H]2[C@H]2OC(=O)[C@@H](CN3CCN(c4ccccc4F)CC3)[C@@H]2C[C@H]1O`, the IC50 came to 25 µM.

Turning to `C/C1=C\CC[C@@]2(C)O[C@@H]2[C@H]2OC(=O)[C@@H](CN3CCN(C)CC3)[C@@H]2C[C@H]1O`, the IC50 was determined as 33 µM.

Another assay has as its system SK-MEL-28. Nature of the assay: Anticancer activity against human SK-MEL-28 cells assessed as growth inhibition after 72 hrs by MTT assay. It counts as functional, cell-based. The settings on record: SK-MEL-28, 72 h.
In the case of `C=C1C(=O)O[C@H]2[C@H]1C[C@@H](O)/C(C)=C/CC[C@@]1(C)O[C@@H]21`, the IC50 worked out at 9 µM.

As for `C/C1=C\CC[C@@]2(C)O[C@@H]2[C@H]2OC(=O)[C@@H](CN3CCCCC3)[C@@H]2C[C@H]1O`, the concentration for half-maximal inhibition (IC50) amounted to 16 µM.

As for `C=C1C(=O)O[C@H]2[C@H]1C[C@H](O)/C(C)=C/CC[C@@]1(C)O[C@@H]21`, the IC50 came to 25 µM.

`C/C1=C\CC[C@@]2(C)O[C@@H]2[C@H]2OC(=O)[C@@H](CN(C)CCN(C)C)[C@@H]2C[C@H]1O`: the IC50 stood at 19 µM.

As for `C[C@]12O[C@@H]1CC[C@@]1(C)O[C@@H]1[C@H]1OC(=O)[C@@H](CN3CCN(c4ccccc4)CC3)[C@@H]1C[C@H]2O`, the IC50 came to 51 µM.

Consider `C/C1=C\CC[C@@]2(C)O[C@@H]2[C@H]2OC(=O)[C@@H](CN3CCN(C)CC3)[C@@H]2C[C@@H]1O`, for which the IC50 came out at 23 µM.

Consider `C/C1=C\CC[C@@]2(C)O[C@@H]2[C@H]2OC(=O)[C@@H](CN3CCCC3)[C@@H]2C[C@@H]1O`, for which the IC50 is 23 µM.

For the compound `C/C1=C\CC[C@@]2(C)O[C@@H]2[C@H]2OC(=O)[C@@H](CN3CCN(c4ccccc4F)CC3)[C@@H]2C[C@H]1O`, the IC50 was 25 µM.

As to `C/C1=C\CC[C@@]2(C)O[C@@H]2[C@H]2OC(=O)[C@@H](CN3CCN(C)CC3)[C@@H]2C[C@H]1O`, the IC50 came to 57 µM.

A further assay relates to A549. Nature of the assay: Anticancer activity against human A549 cells assessed as growth inhibition after 72 hrs by MTT colorimetric assay. The settings on record: A549, 72 h. The format is functional, cell-based.
With `C=C1C(=O)O[C@H]2[C@H]1C[C@@H](O)/C(C)=C/CC[C@@]1(C)O[C@@H]21`, the IC50 is 7 µM.

As for `C/C1=C\CC[C@@]2(C)O[C@@H]2[C@H]2OC(=O)[C@@H](CN3CCCCC3)[C@@H]2C[C@H]1O`, the IC50 amounted to 18 µM.

Regarding `C=C1C(=O)O[C@H]2[C@H]1C[C@H](O)/C(C)=C/CC[C@@]1(C)O[C@@H]21`, the IC50 came out at 24 µM.

`C/C1=C\CC[C@@]2(C)O[C@@H]2[C@H]2OC(=O)[C@@H](CN(C)CCN(C)C)[C@@H]2C[C@H]1O`: the IC50 amounted to 8 µM.

As for `C[C@]12O[C@@H]1CC[C@@]1(C)O[C@@H]1[C@H]1OC(=O)[C@@H](CN3CCN(c4ccccc4)CC3)[C@@H]1C[C@H]2O`, the IC50 worked out at 48 µM.

As for `C/C1=C\CC[C@@]2(C)O[C@@H]2[C@H]2OC(=O)[C@@H](CN3CCN(C)CC3)[C@@H]2C[C@@H]1O`, the IC50 was 25 µM.

In the case of `C/C1=C\CC[C@@]2(C)O[C@@H]2[C@H]2OC(=O)[C@@H](CN3CCCC3)[C@@H]2C[C@@H]1O`, the IC50 was 9 µM.

`C/C1=C\CC[C@@]2(C)O[C@@H]2[C@H]2OC(=O)[C@@H](CN3CCN(c4ccccc4F)CC3)[C@@H]2C[C@H]1O`: the IC50 is 22 µM.

In the case of `C/C1=C\CC[C@@]2(C)O[C@@H]2[C@H]2OC(=O)[C@@H](CN3CCN(C)CC3)[C@@H]2C[C@H]1O`, the IC50 turned out to be 30 µM.

Tested on in the next assay: not listed separately
Nature of the assay: Anticancer activity against human Glioma cells assessed as growth inhibition after 72 hrs by MTT assay. The format is functional, cell-based.
Details: not given
As to `C/C1=C\CC[C@@]2(C)O[C@@H]2[C@H]2OC(=O)[C@@H](CN3CCCCC3)[C@@H]2C[C@H]1O`, the IC50 amounted to 4 µM.

As for `C/C1=C\CC[C@@]2(C)O[C@@H]2[C@H]2OC(=O)[C@@H](CN(C)CCN(C)C)[C@@H]2C[C@H]1O`, the half-inhibitory concentration (IC50) turned out to be 16 µM.

Take `C[C@]12O[C@@H]1CC[C@@]1(C)O[C@@H]1[C@H]1OC(=O)[C@@H](CN3CCN(c4ccccc4)CC3)[C@@H]1C[C@H]2O`: the IC50 is 35 µM.

For the compound `C/C1=C\CC[C@@]2(C)O[C@@H]2[C@H]2OC(=O)[C@@H](CN3CCN(c4ccccc4F)CC3)[C@@H]2C[C@H]1O`, the IC50 turned out to be 6 µM.

As to `C/C1=C\CC[C@@]2(C)O[C@@H]2[C@H]2OC(=O)[C@@H](CN3CCN(C)CC3)[C@@H]2C[C@H]1O`, the IC50 came out at 36 µM.

Tested on in the next assay: not listed separately
Nature of the assay: Anticancer activity against mouse B16F10 cells assessed as growth inhibition after 72 hrs by MTT colorimetric assay. It counts as functional, cell-based. The conditions noted are these: B16-F10, 72 h.
For the compound `C=C1C(=O)O[C@H]2[C@H]1C[C@@H](O)/C(C)=C/CC[C@@]1(C)O[C@@H]21`, the IC50 was 4 µM.

Regarding `C/C1=C\CC[C@@]2(C)O[C@@H]2[C@H]2OC(=O)[C@@H](CN3CCCCC3)[C@@H]2C[C@H]1O`, the IC50 was 4 µM.

Regarding `C=C1C(=O)O[C@H]2[C@H]1C[C@H](O)/C(C)=C/CC[C@@]1(C)O[C@@H]21`, the IC50 is 15 µM.

Take `C/C1=C\CC[C@@]2(C)O[C@@H]2[C@H]2OC(=O)[C@@H](CN(C)CCN(C)C)[C@@H]2C[C@H]1O`: the half-inhibitory concentration (IC50) amounted to 4 µM.

For the compound `C[C@]12O[C@@H]1CC[C@@]1(C)O[C@@H]1[C@H]1OC(=O)[C@@H](CN3CCN(c4ccccc4)CC3)[C@@H]1C[C@H]2O`, the IC50 was determined as 22 µM.

Take `C/C1=C\CC[C@@]2(C)O[C@@H]2[C@H]2OC(=O)[C@@H](CN3CCN(C)CC3)[C@@H]2C[C@@H]1O`: the IC50 came out at 9 µM.

In the case of `C/C1=C\CC[C@@]2(C)O[C@@H]2[C@H]2OC(=O)[C@@H](CN3CCCC3)[C@@H]2C[C@@H]1O`, the IC50 is 7 µM.

`C/C1=C\CC[C@@]2(C)O[C@@H]2[C@H]2OC(=O)[C@@H](CN3CCN(c4ccccc4F)CC3)[C@@H]2C[C@H]1O`: the IC50 was 6 µM.

As to `C/C1=C\CC[C@@]2(C)O[C@@H]2[C@H]2OC(=O)[C@@H](CN3CCN(C)CC3)[C@@H]2C[C@H]1O`, the IC50 was found to be 25 µM.

A further assay concerns T98G. Nature of the assay: Anticancer activity against human T98G cells assessed as growth inhibition after 72 hrs by MTT assay. The format is functional, cell-based.
Details: not given
Take `C=C1C(=O)O[C@H]2[C@H]1C[C@@H](O)/C(C)=C/CC[C@@]1(C)O[C@@H]21`: the concentration for half-maximal inhibition (IC50) amounted to 11 µM.

On to `C=C1C(=O)O[C@H]2[C@H]1C[C@H](O)/C(C)=C/CC[C@@]1(C)O[C@@H]21`, for which the IC50 amounted to 25 µM.

As for `C/C1=C\CC[C@@]2(C)O[C@@H]2[C@H]2OC(=O)[C@@H](CN3CCN(C)CC3)[C@@H]2C[C@@H]1O`, the IC50 came to 23 µM.

As to `C/C1=C\CC[C@@]2(C)O[C@@H]2[C@H]2OC(=O)[C@@H](CN3CCCC3)[C@@H]2C[C@@H]1O`, the IC50 was 15 µM.

The next assay relates to MCF7. Nature of the assay: Anticancer activity against human MCF7 cells assessed as growth inhibition after 72 hrs by MTT assay. The format is functional, cell-based. The settings on record: MCF7, 72 h.
Take `C=C1C(=O)O[C@H]2[C@H]1C[C@@H](O)/C(C)=C/CC[C@@]1(C)O[C@@H]21`: the IC50 stood at 6 µM.

In the case of `C/C1=C\CC[C@@]2(C)O[C@@H]2[C@H]2OC(=O)[C@@H](CN3CCCCC3)[C@@H]2C[C@H]1O`, the IC50 is 16 µM.

For the compound `C=C1C(=O)O[C@H]2[C@H]1C[C@H](O)/C(C)=C/CC[C@@]1(C)O[C@@H]21`, the IC50 stood at 23 µM.

As to `C/C1=C\CC[C@@]2(C)O[C@@H]2[C@H]2OC(=O)[C@@H](CN(C)CCN(C)C)[C@@H]2C[C@H]1O`, the IC50 was found to be 14 µM.

`C[C@]12O[C@@H]1CC[C@@]1(C)O[C@@H]1[C@H]1OC(=O)[C@@H](CN3CCN(c4ccccc4)CC3)[C@@H]1C[C@H]2O`: the IC50 came out at 59 µM.

For the compound `C/C1=C\CC[C@@]2(C)O[C@@H]2[C@H]2OC(=O)[C@@H](CN3CCN(C)CC3)[C@@H]2C[C@@H]1O`, the IC50 is 22 µM.

On to `C/C1=C\CC[C@@]2(C)O[C@@H]2[C@H]2OC(=O)[C@@H](CN3CCCC3)[C@@H]2C[C@@H]1O`, for which the IC50 was 18 µM.

Take `C/C1=C\CC[C@@]2(C)O[C@@H]2[C@H]2OC(=O)[C@@H](CN3CCN(c4ccccc4F)CC3)[C@@H]2C[C@H]1O`: the IC50 came to 24 µM.

Take `C/C1=C\CC[C@@]2(C)O[C@@H]2[C@H]2OC(=O)[C@@H](CN3CCN(C)CC3)[C@@H]2C[C@H]1O`: the IC50 amounted to 33 µM.
